Data published in paper PMC3236741 (PLoS ONE, 2011).
Entries after “also recorded” stand apart in the source; their conditions may differ. Marks after values point to notes of the source that are not given here. Each block holds one compound with its values, some of them ahead of it. Peptide text beside a SMILES is read from it.

Key:
[1] = ^125I-Ang-(1-12) metabolism by plasma membranes from human atrial appendage, HPLC with inline γ-detector; conditions: human atrial plasma membrane 50 µg, 1 nmol/L substrate, 15 min pre-incubation, 60 min at 37°C, HPLC γ-detection, mean ± SEM, n = 9
Protocol: Membranes were prepared at 4°C in a manner similar to the approaches previously described by our laboratory [52] and by Urata et al. [26] Frozen atrial tissue (50–100 mg) was homogenized at 4°C in 1 mL PBS (pH 7.4) in a Qiagen TissueLyzer (Valencia, CA). The homogenate was centrifuged at low spin (200 g) for 5 min at 4°C to remove the connective tissues and cell debris. The supernatant was transferred into a new tube and centrifuged at 28,000 g for 20 min at 4°C to collect the plasma membrane. The pellet was resuspended in PBS and centrifuged as described above. Finally, the pellet was resuspended in PBS and stored at −80°C till its use for metabolism studies. The concentration of each cardiac membrane preparation is expressed in terms of protein concentration measured by Bradford Reagent using bovine serum albumin (BSA) as the standard; the results were normalized in terms of per mg protein.
For ^125I-Ang-(1-12) metabolism studies, plasma membranes (50 µg per reaction mixture) were preincubated for 15 min under various combinations of RAS and peptidases inhibitors (50 µM each). After preincubation of plasma membranes with the inhibitors, human ^125I-Ang-(1-12) (1 nmol/L; specific activity 3,900 cpm/fmol) was added to the reaction medium and incubated for an additional 60 min at 37°C. At the end of the incubation time, the reaction was stopped by adding equal volume of 1% phosphoric acid, mixed well, and centrifuged at 28,000 g for 20 min to remove the plasma membrane. […] On the day of HPLC analysis, the samples were filtered before separation by reverse-phase high-performance liquid chromatography. We used a linear gradient from 10% to 50% mobile phase B at a flow rate of 0.35 mL/min at ambient temperature. The solvent system consisted of 0.1% phosphoric acid (mobile phase A) and 80% acetonitriles/0.1% phosphoric acid (mobile phase B). The eluted ^125I products were monitored by an in-line flow-through gamma detector (BioScan Inc., Washington, DC). Products were identified by comparison of retention time of synthetic [^125I] standard peptides and the data were analyzed with Shimadzu LCSolution (Kyoto, Japan) acquisition software.

[2] = test system: Ang I induced carotid artery vasoconstriction; conditions: administration of chymostatin in enalapril-treated SHR rats; ref Becari et al. [30]; cited from earlier work
Source text: A critical role for chymase in accounting for the processing of Ang-(1-12) is reinforced through the corresponding consistency of the chymase activity measured in each of the human samples. Since the atrial tissue employed in these studies was obtained from subjects undergoing cardiac surgery for the treatment of heart rhythm disorders (Table 2), we cannot exclude the possibility that the relatively high chymase activity reflects increased expression of this enzyme in this condition. Although an increase in cardiac chymase activity has been reported in both clinical and experimental forms of h ...

chymase = molecular target: T1, chymase (Homo sapiens, UniProt P23946); assay: Hydrolysis of colorimetric substrate N-suc-AAPF-pNA by human plasma membrane with or without chymostatin; type: biochemical; conditions: chymostatin 50 µM; 1 mM N-suc-AAPF-pNA; 50 mM Tris pH 8.0, 1.5 M NaCl, 1% DMSO; 37°C, 0–180 min; absorbance 410 nm; six human atrial tissues
T1 construct: hydrolysis of 1 mM N-suc-AAPF-pNA in the plasma membrane of six human atrial tissues; from tissue; host or cells: human left atrial appendage tissue, plasma membrane fraction
T1 sequence (P23946 22-247): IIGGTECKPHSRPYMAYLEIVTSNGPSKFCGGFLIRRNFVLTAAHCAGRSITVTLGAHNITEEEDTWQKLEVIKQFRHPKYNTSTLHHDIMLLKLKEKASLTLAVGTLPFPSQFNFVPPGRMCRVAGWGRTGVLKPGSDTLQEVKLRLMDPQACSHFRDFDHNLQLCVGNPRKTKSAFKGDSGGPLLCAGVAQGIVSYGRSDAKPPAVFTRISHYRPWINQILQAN
Protocol: Chymase activity was also monitored by evaluating the hydrolysis of 1 mM N-suc-AAPF-pNA in the plasma membrane of six human atrial tissues. Briefly, all assays were performed in a total reaction volume of 200 µL in the 96-well microtiter plates containing plasma membranes with or without the presence of chymostatin (chymase inhibitor; 50 µM) as described above in 50 mM Tris buffer (pH 8.0) containing 1.5 M NaCl and 1% dimethylsulphoxide. The increase in absorbance at 410 nm was measured at 37°C for different time points (0–180 min) for the released p-nitroaniline. In addition, Ang II formation from ^125I-Ang-(1-12) was also investigated in the absence and in the presence of TEI-F00806 (100 µM; an orally active chymase-specific inhibitor provided by Teijin Pharma, Tokyo, Japan). Briefly, plasma membranes isolated from human atrial tissue (50 µg per reaction mixture) and ^125I-Ang-(1-12) were incubated in the presence or absence of TEI-F00806 (as described above for chymostatin) for 37°C for 60 min. At the end of incubation, samples were analyzed by HPLC for Ang II formation from ^125I-Ang-(1-12).

[3] = plasma membrane (50 µg) isolated from human atrial appendage, All RAS inhibitors group; conditions: 37°C, up to 60 min
[4] = plasma membrane (50 µg) isolated from human atrial appendage, Minus Lisinopril group; conditions: 37°C, up to 60 min
[5] = plasma membrane (50 µg) isolated from human atrial appendage, No RAS inhibitors group; conditions: 37°C, up to 60 min
[6] = plasma membrane (50 µg) isolated from human atrial appendage, Minus Chymostatin group; conditions: 37°C, up to 60 min
[7] = plasma membrane of six human atrial tissues in 50 mM Tris buffer (pH 8.0) containing 1.5 M NaCl and 1% dimethylsulphoxide; conditions: 37°C, up to 180 min
[8] = plasma membrane of six human atrial tissues in 50 mM Tris buffer (pH 8.0) containing 1.5 M NaCl and 1% dimethylsulphoxide, with chymostatin; conditions: 37°C, up to 180 min
human leukocyte elastase = conditions: cited from earlier work
[9] = molecular target: protein A purified polyclonal antibody directed to the COOH-terminus of human Ang-(1-12); assay: Binding affinity and cross-reactivity of protein A purified polyclonal Ang-(1-12) antibody (IgG); conditions: protein A purified polyclonal antibody (IgG) to human Ang-(1-12); cross-reactivity
Protocol: Left atrial tissues from human cardiac patient were fixed in 4% paraformaldehyde for 24 h and then transferred into 70% ethanol. After dehydration, the tissues were embedded in paraffin and each section was cut in 5-µm thick sections. Immunohistochemistry was performed using well characterized protein A purified polyclonal antibody directed to the COOH-terminus of full length of human Ang-(1-12) sequence [Asp^1-Arg^2-Val^3-Tyr^4-Ile^5-His^6-Pro^7-Phe^8-His^9-Leu^10-Val^11-Ile^12] (AnaSpec, San Jose, CA). The binding affinity and cross-reactivity of protein A purified antibody (IgG) was checked for human Ang-(1-12) and small Ang peptides [Ang I, Ang II and Ang-(1-7)]. […] The antibody was independently used to detect immunoreactive Ang-(1-12) in human atrial tissue using the avidin-biotin horseradish peroxidase techniques as previously reported by our laboratory, [11]. Briefly, slides were deparaffinized in xylene (15 min), subsequently dipped in ethanol (100%, 95% and 75%, respectively) and washed in double distilled water. The clear slides were incubated in 3% hydrogen peroxide to block the endogenous peroxidase. […]

Compound: CC(C)C[C@H](NC(=O)[C@@H](NC(=O)N[C@@H](Cc1ccccc1)C(=O)O)[C@@H]1CCN=C(N)N1)C(=O)N[C@H](C=O)Cc1ccccc1 [chymostatin, Chymostatin]
inhibition of Ang I induced carotid artery vasoconstriction [2]: 80%
hydrolysis of N-suc-AAPF-pNA by human plasma membrane in the presence of inhibitor (chymase): completely blocked

Compound: angiotensin II (DRVYIHPF; Angiotensin-2; UniProt P01019 25-32, looked up) [Ang II, angiotensin peptide, main metabolic product of ^125I-Ang-(1-12)]
EC50 [9]: 0.28 ± 0.02 nM

Compound: angiotensin-(1-7) [Ang-(1-7)]
binding affinity of the antibody (EC50) [9]: below detection

Continued, in another order:

Percent of ^125I-Ang-(1-12) parent control remained unmetabolized ([1]; All RAS inhibitors (plus lisinopril, SCH39370, MLN-4760, chymostatin; 50 µM each)): 98±7%
Percent of ^125I-Ang-(1-12) parent control remained unmetabolized ([1]; Minus chymostatin (all inhibitors except chymase inhibitor; 50 µM each)): 31±13 ^a %
Percent of ^125I-Ang-(1-12) parent control remained unmetabolized ([1]; Minus lisinopril (all inhibitors except ACE inhibitor; 50 µM each)): 98±5%
Percent of ^125I-Ang-(1-12) parent control remained unmetabolized ([1]; NO RAS inhibitors (only amastatin, bestatin, benzyl succinate, PCMB; 50 µM each)): 22±10 ^a %
Compound: CC[C@H](C)[C@H](NC(=O)[C@@H](NC(=O)[C@H](CC(C)C)NC(=O)[C@H](Cc1c[nH]cn1)NC(=O)[C@H](Cc1ccccc1)NC(=O)[C@@H]1CCCN1C(=O)[C@H](Cc1c[nH]cn1)NC(=O)[C@@H](NC(=O)[C@H](Cc1ccc(O)cc1)NC(=O)[C@@H](NC(=O)[C@H](CCCNC(=N)N)NC(=O)[C@@H](N)CC(=O)O)C(C)C)[C@@H](C)CC)C(C)C)C(=O)O [Ang-(1-12), angiotensin-(1-12)] (H-DRVYIHPFHLVI-OH)

fragment found [4]: Ang II, minor
cleaved bond [5]: Phe8-His9, major
fragment found [5]: Ang I, minor
cleaved bond [6]: Phe8-His9, major
fragment found [6]: Ang I, minor
Compound: H-Asp^1-Arg^2-Val^3-Tyr^4-Ile^5-His^6-Pro^7-Phe^8-His^9-Leu^10-Val^11-Ile^12-OH
fragment found [3]: Ang I, minor; also recorded: Ang II, minor

fragment found [7]: p-nitroaniline
Compound: N-Succinyl-Ala-Ala-Pro-Phe-p-nitroanilide
not cleaved [8]: hydrolysis completely blocked in the presence of chymostatin
not cleaved (human leukocyte elastase): not hydrolyzed by human leukocyte elastase
